Test results taken from PubChem BioAssay (NCI).
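Dose response: 5 concentrations. Exposure: 48 h. Format: 96-well plates. Endpoint: linear interpolation; highest concentration if not reached. Definition used: TGI = concentration required for complete inhibition of growth.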

How the values were obtained:
Experiment in all cases: NCI anticancer screen, dose series, 48 h
786-0 renal = tested on: 786-0 renal
ACHN renal = tested on: ACHN renal
CCRF-CEM leukemia = tested on: CCRF-CEM leukemia
HCT-116 colon = tested on: HCT-116 colon
HCT-15 colon = tested on: HCT-15 colon
HL-60(TB) leukemia = tested on: HL-60(TB) leukemia
HOP-62 NSCLC = tested on: HOP-62 NSCLC
K-562 leukemia = tested on: K-562 leukemia
OVCAR-4 ovarian = tested on: OVCAR-4 ovarian
OVCAR-5 ovarian = tested on: OVCAR-5 ovarian
RPMI-8226 leukemia = tested on: RPMI-8226 leukemia
RXF 393 renal = tested on: RXF 393 renal
SK-OV-3 ovarian = tested on: SK-OV-3 ovarian
SNB-19 CNS = tested on: SNB-19 CNS

| SMILES | TGI (786-0 renal) | TGI (ACHN renal) | TGI (CCRF-CEM leukemia) | TGI (HCT-116 colon) | TGI (HCT-15 colon) | TGI (HL-60(TB) leukemia) | TGI (HOP-62 NSCLC) | TGI (K-562 leukemia) | TGI (OVCAR-4 ovarian) | TGI (OVCAR-5 ovarian) | TGI (RPMI-8226 leukemia) | TGI (RXF 393 renal) | TGI (SK-OV-3 ovarian) | TGI (SNB-19 CNS) |
| --- | --- | --- | --- | --- | --- | --- | --- | --- | --- | --- | --- | --- | --- | --- |
| O=C(O)c1ccc(Nc2nc3ccc(C(F)(F)F)cc3nc2C(=O)O)cc1 | > 100 µM | > 100 µM | > 100 µM | > 100 µM | > 100 µM | > 100 µM | > 100 µM | > 100 µM | > 100 µM | > 100 µM | > 100 µM | > 100 µM | > 100 µM | > 100 µM |
| O=C(O)c1ccccc1/C=N\N(CCO)C1=NCCN1 | > 100 µM | > 100 µM | > 100 µM | > 100 µM | > 100 µM | > 100 µM | > 100 µM | > 100 µM | > 100 µM | > 100 µM | > 100 µM | > 100 µM | > 100 µM | > 100 µM |
| O=C(Nc1ccccc1)c1cc2cc(CCl)ccc2oc1=O | > 100 µM | 31.1 µM | > 100 µM | > 100 µM | > 100 µM | > 100 µM | > 100 µM | > 100 µM | > 100 µM | > 100 µM | > 100 µM | > 100 µM | > 100 µM | > 100 µM |
| CC(NNC(=S)N1CCCC1)c1cccnn1 (configuration not stated) | > 100 µM | 4.68 µM | > 100 µM | > 44 µM | > 100 µM | > 100 µM | > 31 µM | > 100 µM | > 76.9 µM | 8.71 µM | > 100 µM | 0.671 µM | > 65.5 µM | > 100 µM |
| CC(=O)OC1CC2C(=O)CC1(C)C2(C)C (configuration not stated) | > 100 µM | > 100 µM | > 100 µM | > 100 µM | > 100 µM | > 100 µM | > 100 µM | > 100 µM | > 100 µM | > 100 µM | > 100 µM | > 100 µM | > 100 µM | > 100 µM |
| C[C@H]1[C@H](C)CC[C@]2(C(=O)O)CCC3(COC(=O)/C=C/c4ccc(O)cc4)C(=CCC4[C@@]5(C)CC[C@H](O)C(C)(C)C5CC[C@]43C)[C@H]12 (some centres not stated) | 16 µM | 13.1 µM | 17.3 µM | 14.2 µM | 15.7 µM | 53.1 µM | 23 µM | 20.9 µM | 29.7 µM | 28.6 µM | 49.8 µM | 23.5 µM | 6.99 µM | 22.5 µM |
| C/C1=C\CC[C@@]2(C)O[C@@H]2C[C@@H]2[C@H](C/C(C)=C/CC1)OC(=O)[C@]21CO1 | > 100 µM | > 100 µM | > 100 µM | > 100 µM | > 100 µM | > 100 µM | > 100 µM | > 100 µM | > 100 µM | > 100 µM | > 100 µM | > 100 µM | > 100 µM | > 100 µM |
| CC(=O)O[C@H]1C(=O)[C@@]2(C)[C@H]([C@H](OC(=O)c3ccccc3)[C@]3(O)C[C@H](OC(=O)[C@H](O)[C@@H](NC(=O)OC(C)(C)C)c4ccco4)C(C)=C1C3(C)C)[C@]1(OC(C)=O)CO[C@@H]1C[C@@H]2O | > 50 µM | > 48.1 µM | 35.7 µM | 17.5 µM | 12.3 µM | 0.0241 µM | 0.601 µM | 13.4 µM | > 50 µM | 9.96 µM | > 28.2 µM | 0.0338 µM | 7.38 µM | > 50 µM |
| COc1ccccc1NC(=O)C(=O)C(c1cnc2ccc([N+](=O)[O-])cc2n1)[N+](=O)[O-] (configuration not stated) | > 100 µM | > 100 µM | > 100 µM | > 100 µM | > 100 µM | > 100 µM | > 100 µM | > 100 µM | > 100 µM | > 100 µM | > 100 µM | > 100 µM | > 100 µM | > 100 µM |
| Cc1c2c(n3c(nc4ccccc43)c1C#N)NCC2 | > 10 µM | > 10 µM | > 10 µM | > 10 µM | > 10 µM | > 10 µM | > 10 µM | > 10 µM | > 10 µM | > 10 µM | > 10 µM | > 10 µM | > 10 µM | > 10 µM |
| CC(c1ccccc1)n1c2ccccc2c2c(N)ncnc21 (configuration not stated) | 28.6 µM | 31.9 µM | > 100 µM | 38.5 µM | 59.4 µM | 47.8 µM | 31.9 µM | 71.9 µM | 31.2 µM | 37.9 µM | 74.5 µM | 33.5 µM | 29.5 µM | 33.8 µM |
| COc1cc2cnc3c4cc(O)ccc4ccc3c2cc1OC | > 100 µM | > 100 µM | > 100 µM | > 100 µM | > 100 µM | > 100 µM | > 100 µM | > 100 µM | > 100 µM | > 100 µM | > 100 µM | > 100 µM | > 100 µM | > 100 µM |
| COc1cc2c(c(OC)c1)C(=O)C(=O)C(CC1(C)OCCCO1)=C2 | 22 µM | 17.9 µM | 4.72 µM | 10.3 µM | 17 µM | 4.28 µM | 32.6 µM | 6.7 µM | 18.9 µM | 37.7 µM | > 100 µM | 8.71 µM | 30.2 µM | > 53.2 µM |
